The test system of one series is conscious dog. The series can be described thus: Anti-angina activity: amplitude increase protection of the T wave by vasopression in the conscious dog. The class given is in vivo. An excerpt:
The antiangina activity was also compared with that of the nitroglycerine by means of the amplitude increase protection test of the T wave for vasopression in the conscious dog. ( A.Lindner, M.London, G.Werner, Scheiz. Med.
Wsohr. 83-,- 360, 1953; J.Papp, L. Szekeres. Arch. Int. Pharmacodyn. 160, 1, 1966 ).

Another series deals with male NMRI mouse. The series can be described thus: Anti-arrythmic activity: fibrillation by chloroform in the mouse. The class given is in vivo. To be noted: for ED50: Mus musculus. An excerpt:
Tables 5 and 6 show the anti-arrithmic activity of the ITA 362 in the male NMRI mouse by oral and intraperitoneal route using the fibrillation test by chloroform in the mouse. […] The activity of the two forms of maleate described in the example 2 were studied and which in the table are subtitled as isomer A corresponding to the first fraction obtained in the aforementioned example, and isomer B corresponding to the second fraction.

A further series deals with hind quarters of rats. The series can be described thus: Vasodilatory activity: perfusion of the hindquarters of rats with a hyperpotasemic solution. The series is classed as in vivo, rat. Also noted: ED 25: unit not given here. The text has this:
In the table 3 is shown the results of the vasodilatory activity of the ITA 362 in the perfusion test of the hindquarters of rats with a hyperpotasemic solution. (F.N.Fastier, F.M. Smirk. Jl. Pharmacolog. Exp. Therapy. 89. 256, 1947).

The nature of series [1]: Acute toxicity (LD50, method of Litchfield and Wilcoxon) in the mouse. To be noted: in vivo. How it is done:
(§1) The respective lethal dose 50 was calculated according to the method of Litchfield and Wilcoxon (Jl. Pharmacol. Exptl. 96 99, 1949 ).

Series [2] is described as follows: Acute toxicity (LD50, method of Litchfield and Wilcoxon) in the rat. Conditions: in vivo. How it is done:
as §1

Setting [3] is: ip, no unit given for ED50 (doses in mg/kg), read-out: ED50 and confidence limits p < 0,05.
The mark [4] stands for this setting: po, no unit given for ED50 (doses in mg/kg), (*) = calculation of limits is not possible, read-out: ED50 and confidence limits p<0,05.
The mark [5] stands for this setting: ip, intraperitoneal administration, read-out: LD50 and confidence limits.
Setting [6] is: oral administration, read-out: LD50.

Where a name gives a salt, the structure may show the parent alone. Read-outs that look alike come from different tables or passages of the source. Where only a bound is given, the exact number is not on record here.

With `CCCCNCC1COC(c2ccc(Cl)cc2)(c2cc3ccccc3o2)O1` (stereo not shown) [ITA 362, 2-(2' -benzofuranil)-4-n-butylaminomethyl-2-p-chlorophenyl-1,3-dioxolane], the “% Prot.” value with conscious dog (dose i.v. 1 mg/kg, 1 mg/kg) is about 50%.

Take `CCCCNCC1COC(c2ccc(Cl)cc2)(c2cc3ccccc3o2)O1` (stereo not shown) [ITA 362 citrate]: the results for the 50% effective dose (ED50) in the series with male NMRI mouse (setting [3]) and with male NMRI mouse (setting [4]) were 41.4 mg/kg and 43.2 mg/kg, respectively. The “% protection versus fibrillation” value is 40% in the series on male NMRI mouse (i.p. 25 mg/kg); 35% with male NMRI mouse (i.p. 50 mg/kg); 84,2% in the series on male NMRI mouse (i.p. 100 mg/kg); 25% in the series on male NMRI mouse (i.p. 12,5 mg/kg); 45% in the series with male NMRI mouse (p.o. 25 mg/kg); 55% in the series on male NMRI mouse (p.o. 50 mg/kg). Further, the “% protection versus fibrillation” value in the series on male NMRI mouse (p.o. 100 mg/kg) was 55%; in the series with male NMRI mouse (p.o. 3,125 mg/kg) it was 10%; with male NMRI mouse (p.o. 6,25 mg/kg) it was 42,1%; in the series with male NMRI mouse (p.o. 12,5 mg/kg), 31,6%. The “% drop in pressure” value in the series with hind quarters of rats (concentration 10^-5 g/ml) is 33,6%; with hind quarters of rats (concentration 10^-6 g/ml) it was 16,3%; with hind quarters of rats (concentration 10^-7 g/ml) it was 12,7%; in the series with hind quarters of rats (concentration 10^-8 g/ml), 12,5%. The “ED 25” value in the series on hind quarters of rats (from concentrations 10^-5 to 10^-8 g/ml, correlation r printed in the same cell) is 2,61.

In the case of `CCCCNCC1COC(c2ccc(Cl)cc2)(c2cc3ccccc3o2)O1` (single isomer, unassigned) [ITA 362 maleate (isomer B)], the ED50 with male NMRI mouse (setting [4]) was 27.6 mg/kg. Further, the “% protection versus fibrillation” value with male NMRI mouse (i.p. 25 mg/kg) came out at 35%; in the series on male NMRI mouse (i.p. 50 mg/kg, 50 mg/kg), 70%; with male NMRI mouse (i.p. 100 mg/kg, 100 mg/kg), 95%; in the series on male NMRI mouse (i.p. 12,5 mg/kg) it was 40%; with male NMRI mouse (p.o. 25 mg/kg, 25 mg/kg), 55%; in the series with male NMRI mouse (p.o. 50 mg/kg, 50 mg/kg) it was 45%. In addition, the “% protection versus fibrillation” value in the series on male NMRI mouse (p.o. 100 mg/kg, 100 mg/kg) is 85%; with male NMRI mouse (p.o. 12,5 mg/kg) it was 35%. The “ED50 and confidence limits p < 0,05” value with male NMRI mouse (route i.p., no unit given for ED50 (doses in mg/kg)) was 24,5 (16,11 37,20).

Consider `O=[N+]([O-])OCC(CO[N+](=O)[O-])O[N+](=O)[O-]` [Nitro-glycerine, nitroglycerine, reference compound], for which the “% drop in pressure” value is recorded as 25,4% in the series with hind quarters of rats (concentration 10^-5 g/ml), 24,7% in the series on hind quarters of rats (concentration 10^-6 g/ml), 17,5% in the series on hind quarters of rats (concentration 10^-7 g/ml) and 10,9% in the series on hind quarters of rats (concentration 10^-8 g/ml). Moreover, the “% Prot.” value in the series with conscious dog (dose i.v. 0,4 mg/kg) was 28,9%. For the same molecule, the Control quot. treatment in the series on conscious dog (dose i.v. 0,4 mg/kg) is 1,520.

`CCCCNCC1COC(c2ccc(Cl)cc2)(c2cc3ccccc3o2)O1` (single isomer, unassigned) [ITA 362 maleate (isomer A)]: the ED50 in the series with male NMRI mouse (setting [3]) came out at 35.3 mg/kg. Further, the “% protection versus fibrillation” value in the series on male NMRI mouse (i.p. 25 mg/kg) is recorded as 35%; with male NMRI mouse (i.p. 50 mg/kg, 50 mg/kg), 60%; in the series on male NMRI mouse (i.p. 100 mg/kg, 100 mg/kg), 70%; with male NMRI mouse (i.p. 12,5 mg/kg), 35%; with male NMRI mouse (p.o. 25 mg/kg, 25 mg/kg), 35%; in the series with male NMRI mouse (p.o. 50 mg/kg, 50 mg/kg), 70%. Besides, the “% protection versus fibrillation” value is given as 70% with male NMRI mouse (p.o. 100 mg/kg, 100 mg/kg) and 25% with male NMRI mouse (p.o. 12,5 mg/kg).

Regarding `CCCCNCC1COC(c2ccc(Cl)cc2)(c2cc3ccccc3o2)O1` (stereo not shown) [ITA 362 maleate, 2-(2'-benzofuranil) -4-butylaminomethyl--2-p-chlorophenyl-1,3-dioxolane, maleate], the median lethal dose (LD50) was 106 mg/kg in series [1] (setting [5]), over 4000 mg/kg in series [1] (setting [6]), 105 mg/kg in series [2] (setting [5]) and over 4000 mg/kg in series [2] (setting [6]). The Control quot. treatment in the series on conscious dog (dose i.v. 1 mg/kg) is 1,893. For the same molecule, the “% Prot.” value with conscious dog (dose i.v. 1 mg/kg, 1 mg/kg) is on record as 46,8%.

Usually ED50 stands for the midpoint of the dose-response relation. In general, LD50 refers to the dose at which mortality reaches 50%.

These data come from patent publication EP0076973A1, “A new dioxolanic compound and its method of preparation; a new dioxolanic amine with pharmacological activity, its method of preparation, and the pharmaceutical compositions containing them” (Investigacion Tecnica y Aplicada, S.A., priority 1981, dated 1983).
